Experimental data published in patent publication US6759420B1, “Arylalkanoyl derivatives, processes for their preparation, their use and pharmaceutical compositions containing them” (Aventis Pharma Deutschland GmbH, priority 1999, dated 2004).
Counter-ions that a name gives are not always drawn.

target: factor Xa (Homo sapiens, UniProt P00742); experiment: Factor Xa assay (Test 1a), chromogenic; format: biochemical; parameters: purchased Enzyme Research Laboratories, Inc; South Bend, Ind; settings: in vitro factor Xa assay Test 1a; human factor Xa 0.5 nM, substrate S-2765 140 μM, 25° C.; Ki from IC50 corrected for substrate competition
Sequence (P00742 235-488 limits assumed): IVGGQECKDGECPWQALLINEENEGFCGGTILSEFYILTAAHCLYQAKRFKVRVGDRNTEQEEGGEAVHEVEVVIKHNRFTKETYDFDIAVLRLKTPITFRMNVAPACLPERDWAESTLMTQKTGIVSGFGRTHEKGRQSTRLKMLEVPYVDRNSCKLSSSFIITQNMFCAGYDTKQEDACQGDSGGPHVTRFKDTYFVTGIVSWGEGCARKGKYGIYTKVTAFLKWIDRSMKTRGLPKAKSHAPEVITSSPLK
Sequence (P00742 41-179 limits assumed): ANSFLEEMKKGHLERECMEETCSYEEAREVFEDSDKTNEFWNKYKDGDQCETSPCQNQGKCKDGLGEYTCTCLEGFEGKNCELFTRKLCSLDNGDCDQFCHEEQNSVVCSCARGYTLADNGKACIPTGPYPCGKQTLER
Source text: The ability of a compound of formula (I) to inhibit factor Xa, thrombin, plasmin, elastase, and trypsin may be assessed by determining the concentration of compound of formula (I) that inhibits enzyme activity by 50% (IC50). Purified enzymes are used in chromogenic assays. To determine the inhibition constant, the IC50 value is corrected for competition with substrate using the formula:
Ki=IC50×(1/{1+((substrate concentration)/substrate Km)})
where Km is the Michaelis-Menten constant. Y. -C. Chen and W. H. Prusoff, Biochem. Pharmacol. 22: […] (1973), which is incorporated herein by reference.
TBS-PEG buffer (50 mM Tris-Cl, pH 7.8, 200 mM NaCl, 0.05% (w/v) PEG-8000, 0.02% (w/v) NaN3) is used for this assay. The IC50 is determined by combining in appropriate wells of a Costar half-area microtiter plate 25 μl human factor Xa (Enzyme Research Laboratories, Inc.; South Bend, Ind.) in TBS-PEG; 40 μl 10% (v/v) DMSO in TBS-PEG (uninhibited control) or various concentrations of the compound to be tested diluted in 10% (v/v) DMSO in TBS-PEG; and substrate S-2765 (N-benzyloxycarbonyl-D-Arg-Gly-L-Arg-p-nitroanilide; Kabi Pharmacia, Inc.; Franklin Ohio) in TBS-PEG.
The assays are performed by pre-incubating the compound of formula (I) plus enzyme for 10 min, then the assay is initiated by adding substrate to obtain a final volume of 100 μl. The initial velocity of chromogenic substrate hydrolysis is measured by the change in absorbance at 405 nm using a Bio-tek Instruments kinetic plate reader (Ceres UV900HDi) at 25° C. during the linear portion of the time course (usually 1.5 min after addition of substrate). The concentration of inhibitor that causes a 50% decrease in the rate of substrate hydrolysis is predicted by linear regression after plotting the relative rates of hydrolysis (compared to the uninhibited control) versus the log of the compound of formula (I) concentration. The enzyme concentration is 0.5 nM and substrate concentration is 140 μM.

| Ki [nM] | Compound |
| --- | --- |
| 11 | N=C(N)NCCCC(NC(=O)C(NC(=O)C(Cc1ccc(C(=N)N)cc1)c1ccc(Br)cc1)C1CCCCC1)C(N)=O (single isomer, unassigned; less polar) [Example 119] |
| 28 | COc1ccc(CNC(=O)C(CCCNC(=N)N)NC(=O)C(NC(=O)C(Cc2ccc(C(=N)N)cc2)C2CCCCC2)C2CCCCC2)cc1 [Example 202, 2-(S)-{2-[3-(4-Carbamimidoyl-phenyl)-2-cyclohexyl-propionylamino]-2-cyclohexyl-acetylamino}-5-guanidino-pentanoic acid 4-methoxy-benzylamide trilfuoroacetic acid salt] |
| 1 | N=C(N)NCCCC(NC(=O)C(NC(=O)C(Cc1ccc(C(=N)N)cc1)c1cccc(Cl)c1)C1CCCCC1)C(N)=O (single isomer, unassigned; less polar) [Example 124] |
| 39 | N=C(N)NCCC[C@H](NC(=O)C(NC(=O)C(Cc1ccc(C(=N)N)cc1)C1CCCCC1)C1CCCCC1)C(=O)NCc1ccccc1 (stereo partly drawn) [Example 196, 2-(S)-{2-[3-(4-Carbamimidoyl-phenyl)-2-cyclohexyl-propionylamino]-2-cyclohexyl-acetylamino}-5-guanidino-pentanoic acid benzylamide trifluoroacetic acid salt] |
| 13 | CC(C)OC(=O)[C@H](CCCNC(=N)N)NC(=O)[C@@H](NC(=O)C(Cc1ccc(C(=N)N)cc1)C1CCCCC1)C1CCCCC1 (mixture of isomers) [Example 181, 2-(S)-{2-[3-(4-Carbamimidoyl-phenyl)-2-(R,S)-cyclohexyl-propionylamino]-2-(S)-cyclohexyl-acetylamino}-5-guanidino-pentanoic acid isopropyl ester hydrochloric acid salt] |
| 2570 | N=C(N)NCCCC(NC(=O)C(NC(=O)C(Cc1ccc(C(=N)N)cc1)c1cccc(Cl)c1)C1CCCCC1)C(N)=O (single isomer, unassigned; more polar) [Example 125] |

Second part, the compound before the results:

| Compound | Ki [nM] |
| --- | --- |
| N=C(N)NCCC[C@H](NC(=O)[C@H](CCC(=O)O)NC(=O)C(Cc1ccc(C(=N)N)cc1)c1ccc2ccccc2c1)C(=O)N[C@@H](CC1CCCCC1)C(N)=O (mixture of isomers) [Example 82, 4-(S)-[3-(4-Carbamimidoyl-phenyl)-2-(R,S)-naphthalen-2-yl-propionylamino]-4-[1-(S)-(1-(S)-carbamoyl-2-cyclohexyl-ethylcarbamoyl)-4-guanidino-butylcarbamoyl]-butyric acid trifluoroacetic acid salt] | 2840 |
| N=C(N)NCCC[C@H](NC(=O)[C@H](CCCN)NC(=O)C(Cc1ccc(C(=N)N)cc1)c1cccnc1)C(N)=O (mixture of isomers) [Example 51, 2-(S)-{5-Amino-2-(S)-[3-(4-carbamimidoyl-phenyl)-2-(R,S)-pyridin-3-yl-propionylamino]-pentanoylamino}-5-guanidino-pentanoic acid amide trifluoroacetic acid salt] | 3860 |
| Cc1cccc(C(Cc2ccc(C(=N)N)cc2)C(=O)N[C@H](C(=O)N[C@@H](CCCNC(=N)N)C(N)=O)C2CCCCC2)c1 (mixture of isomers) [Example 122, 2-(S)-{2-(S)-[3-(4-Carbamimidoyl-phenyl)-2-(R,S)-m-tolyl-propionylamino]-2-cyclohexyl-acetylamino}-5-guanidino-pentanoic acid amide hydrochloric acid salt] | 16 |
| N=C(N)NCCC[C@H](NC(=O)[C@@H](NC(=O)C(Cc1ccc(C(=N)N)cc1)c1cccnc1)c1ccccc1)C(N)=O (mixture of isomers) [Example 66, 2-(S)-{2-(S)-[3-(4-Carbamimidoyl-phenyl)-2-(R,S)-pyridin-3-yl-propionyl-amino]-2-phenyl-acetylamino}-5-guanidino-pentanoic acid amide trifluoroacetic acid salt] | 2.3 |
| CC(=N)N1CCC(CNC(=O)C(NC(=O)C(Cc2ccc(C(=N)N)cc2)C2CCCCC2)C2CCCCC2)CC1 (single isomer, unassigned; less polar) [Example 137] | 4 |
| N=C(N)c1ccc(CNC(=O)[C@@H](NC(=O)C(Cc2ccc(C(=N)N)cc2)c2cccc(Cl)c2)C2CCCCC2)cc1 (mixture of isomers) [Example 157, N-[(S)-(4-Carbamimidoyl-benzylcarbamoyl)-cyclohexyl-methyl]-3-(4-carbamimidoyl-phenyl)-2-(R,S)-(3-chloro-phenyl)-propionamide hydrochloric acid salt] | 19 |
| N=C(N)c1ccc(CC(C(=O)N[C@H](C(=O)NCC2CCN(C(=N)N)CC2)C2CCCCC2)c2ccccc2OC(F)(F)F)cc1 (single isomer, unassigned; less polar) [Example 233] | 33 |
| CC(C)OC(=O)[C@H](CCCNC(=N)N)NC(=O)[C@@H](NC(=O)C(Cc1ccc(C(=N)N)cc1)c1cccc(Br)c1)C1CCCCC1 (single isomer, unassigned; more polar) [Example 243] | 25 |
| N=C(N)c1ccc(CC(C(=O)N[C@H](C(=O)NCC2CCN(C(=N)N)CC2)C2CCCCC2)c2ccccc2F)cc1 (stereo partly drawn) [Example 214, 3-(4-Carbamimidoyl-phenyl)-N-{(S)-[(1-carbamimidoyl-piperidin-4-ylmethyl)-carbamoyl]-cyclohexyl-methyl}-2-(2-fluoro-phenyl)-propionamide trifluoroacetic acid salt] | 47 |
| CC(Cc1ccc(C(=N)N)cc1)(C(=O)N[C@@H](COCc1ccccc1)C(=O)N[C@@H](CCCNC(=N)N)C(N)=O)c1ccccc1 (mixture of isomers) [Example 70, 2-(S)-{3-Benzyloxy-2-(S)-[3-(4-carbamimidoyl-phenyl)-2-(R,S)-methyl-2-phenyl-propionylamino]-propionylamino}-5-guanidino-pentanoic acid amide trifluoroacetic acid salt] | 30 |
| N=C(N)c1ccc(CC(C(=O)N[C@H](C(=O)NCC2CCN(C(=N)N)CC2)C2CCCCC2)c2ccccc2Cl)cc1 (single isomer, unassigned; less polar) [Example 230] | 1 |
| CCOC(=O)[C@H](CCCNC(=N)N)NC(=O)[C@@H](NC(=O)C(Cc1ccc(C(=N)N)cc1)c1cccc(F)c1)C1CCCCC1 (mixture of isomers) [Example 126, 2-(S)-{2-(S)-[3-(4-Carbamimidoyl-phenyl)-2-(R,S)-(3-fluoro-phenyl)-propionylamino]-2-cyclohexyl-acetylamino}-5-guanidino-pentanoic acid ethyl ester hydrochloric acid salt] | 11 |
| N=C(N)NCCC[C@H](NC(=O)[C@@H](NC(=O)C(Cc1ccc(C(=N)N)cc1)c1cccnc1)C1CCCCC1)C(N)=O (stereo partly drawn) [Example 10, 2-(S)-{2-(S)-[3-(4-Carbamimidoyl-phenyl)-2-(R,S)-pyridin-3-yl-propionylamino]-2-cyclohexyl-acetylamino}-5-guanidino-pentanoic acid amide trifluoroactic acid salt] | 0.9 |
| CN(C)C(=O)[C@H](CCCNC(=N)N)NC(=O)[C@@H](NC(=O)C(Cc1ccc(C(=N)N)cc1)c1cccc(Br)c1)C1CCCCC1 (single isomer, unassigned; less polar) [Example 246] | 0.7 |
| CCCCOC(=O)[C@H](CCCNC(=N)N)NC(=O)[C@@H](NC(=O)C(Cc1ccc(C(=N)N)cc1)C1CCCCC1)C1CCCCC1 (single isomer, unassigned; less polar) [Example 188] | 22 |
